Columns and labels:
[1] = Identification of metabolites of ZL006-05 in plasma (UPLC-UV/Q-TOF MS); format: in vivo; settings: rats
Protocol: ZL006-05 was given to rats by intravenous injection (i.v., 6.0 mg/kg) and oral administration (i.g., 90 mg/kg) respectively. Plasma samples were collected at pre-dose and 0.25, 0.5, 2 and 4 h for i.v. and 0.5, 1, 2 and 4 h for i.g after a single dose administration. Pre-dose plasma samples were used as control blank. After vortex and centrifugation, supernatant was removed and dried out by nitrogen blowing instrument at 40 °C and then re-dissolved with 100 μL water/ACN (50/50, v/v). The resulting samples were injected and analyzed by UPLC-UV/Q-TOF MS. Metabolites were separated with ACQUITY UPLC HSS T3 C18 column (2.1 × 100 mm I.D., 1.7 µm I.D.) with column temperature at 45 °C and flow rate at 0.4 mL/min, detected by UV (200-600 nm). Masslynx V4.1 of Waters was used for data acquiring, MetaboLynx XS with Masslynx V4.1 was used for data analysis.
Supplementary Figure 3. Proposed metabolic pathways of ZL006-05 in rats. […]
of ZL006-05, including M2-2 (glucuronide conjunction), M3-2 (Mono-oxidation & […]
parent drug were found in plasma after oral administration of ZL006-05, including M1 (Oxidation by de-H2), M2-1 and M2-2 (glucuronide conjunction), M3-1 and M3-2 (Mono-oxidation & glucuronide conjunction). Based on the chromatogram of UPLC- […]
oral dosing, the proposed metabolic pathways of ZL006-05 in blood were summarized. i.v.: intravenous injection; i.g.: oral administration.
(1 picture or pasted object on this page, not shown here)

[2] = test system: laminae I excitatory neurons in the SDH; assay: mIPSCs/mEPSCs recordings from acute spinal slices of chronically treated rats; format: in vivo, rat; settings: rats, ZL006-05 0.3 mg/d intrathecal infusion ×11 d
Text: Osmotic minipumps (models 1004 for mouse and 2ML4 for rat; Alzet) and intrathecal cannulas (0.61 mm outer diameter and 0.28 mm inner diameter for mouse, 0.99 mm outer diameter and 0.58 mm inner diameter for rat) were filled with a solution of PBS. Cannulas were inserted into the subarachnoid space through the space between the L5 and L6 vertebrae and the tip of the catheter was implanted at the L5 spinal segmental level.
All solutions were bubbled with 95% O2 -5% CO2.
For mPSCs measurements, whole-cell recordings were made from putative excitatory neurons in superficial dorsal horn using low-resistance pipettes (4-8 MΩ). Before mPSCs measurements, excitatory neurons were distinguished from inhibitory neurons by firing pattern analysis according to the established relationship between neuronal firing pattern and its neurotransmitter phenotype, [32]-[34] For mEPSCs measurement, the membrane potential was held at -60 mV. […] Tetrodotoxin (0.5 μM) and bicuculline (20 μM) were added to block action potentials and GABAA receptor-mediated currents respectively. For mIPSCs measurement, the membrane potential was held at -70 mV, microelectrodes were filled with internal pipette solution containing CsCl 140, HEPES 10.0, MgATP 4.0, NaGTP 3.0, EGTA 1.0, MgCl2 1.0, CaCl2 0.3 (in mM). […]. […] Each recording lasts more than 5 min. Data were analyzed using Mini software. Up to 120 events from each neuron were selected at a fixed sampling interval to generate cumulative probability.

[3] = test system: SNL-induced mechanical hyperalgesia; assay: SNL-induced mechanical hyperalgesia, von Frey; format: in vivo, mice
Protocol: Neuropathic pain was induced by segmental spinal nerve ligation (SNL). Animals were anesthetized with isoflurane. After the loss of righting reflex, the animal was fixed in the prone position. The SNL model was prepared as described previously: a median skin incision with about 3-5 cm length in L4-S2 level of the mouse back was made, the muscles next to the vertebrae till the sixth lumbar protruding were separated, the L5/L6 joint protruding on the right side was exposed and excised, and L6 processus transversus was partially split so that the L4-L6 spinal nerves on the right side were exposed. L5 nerve was gently isolated and tightly ligated with 5-0 silk thread. The wound was closed with 4-0 silk thread suture and covered with iodine solution. After nerve ligation, animals with signs of paw clonus or autotomy were excluded from further experiments.
For mice, the threshold for 50% PWT response to mechanical stimulus was quantified by assessing the paw withdrawal threshold using von Frey filaments (Touch-Test TM Sensory Evaluator, North coast Medical, Inc.). Mice were placed individually in a plastic cage (4.5 × 5 × 11 cm) with a wire mesh bottom which allowed full access to the paws. Behavioral accommodation was allowed for 20-30 min until cage exploration and major grooming activities ceased. Mechanical threshold was measured by applying a von Frey filament to the ventral surface of the right hind paw until a positive sign of pain behavior was elicited. The paradigm for assessing the threshold was as follows. Von Frey filaments with logarithmically incremental stiffness (0.02-2 g) were applied serially to the paw by the up-down method. The filaments were presented, in ascending order of strength, perpendicular to the plantar surface with sufficient force to causes light bending against the paw and held for 4s. A positive response was noted if the paw was sharply withdrawn. Flinching immediately upon removal of the hair was also considered a positive response. The 2-g filament was selected as the upper limit cut-off for testing. If there was no response at 2-g filament, animals were assigned this cut-off value. The pattern of positive and negative withdrawal responses was converted to 50% threshold according to the formula: 50% PWT = 10 log (X) + κδ. X = value (in log unit) of the final von Frey hair used; κ is correction factors based on the pattern of responses from the calibration table; δ = mean difference in log units between stimuli (here, 0.224).

[4] = test system: locomotor activity; assay: Open field test, locomotor activity; format: in vivo; settings: mice, 1 h after injection, ZL006-05 60 mg/kg, i.v., diazepam 0.5 mg/kg
Protocol: The locomotor activity was assessed by the open field test as described previously. The apparatus consisted of a large area composed of plastic, surrounded by walls that were 100 cm high. The floor was 50 × 50 cm for mice; the overall illumination was 25 lux. Each animal was gently placed in the center of the open field, and its behavior was videotaped. The distance the animals travelled was measured in a 5-min session using ANY-maze (Stoelting Co., IL, USA). After each trial, the plate was cleaned with 70% EtOH. No stressor was applied to the animals for at least 12 h before the test.

[5] = test system: α5β3γ2 GABAARs; assay: Potentiation of GABA-evoked currents, whole-cell patch-clamp in HEK293 cells transiently expressing recombinant GABAARs; format: cell-based

Which “Metabolites found in plasma” value ([1]; after intravenous injection: M2-2, M3-2, M4) does the source give for `CC1(C)C2CCC1(C)C(OC(=O)c1ccc(NCc3cc(Cl)cc(Cl)c3O)cc1O)C2` (centres unmarked) [ZL006-05] here?
Its value is “Three metabolites except parent drug”.

And the “Main metabolite in plasma (UPLC-UV)” value ([1]; after iv dosing, 6.0 mg/kg)?
Its value is “parent drug (M0)”.

What about the “Metabolites found in plasma” value ([1]; after oral administration: M1, M2-1, M2-2, M3-1, M3-2) of the same compound?
Its value is “five metabolites”.

What about the “Main metabolite in plasma (UPLC-UV)” value ([1]; after oral dosing, 90 mg/kg) of the same compound?
The value was “parent drug (M0) and glucuronide conjunction (M2-2)”.

What about the mEPSCs [2] of the same compound?
The mEPSCs was “without affecting mEPSCs”.

And the mIPSCs [2]?
The mIPSCs was “significantly increased mIPSCs amplitude”.

And the “Analgesic tolerance, mechanical hyperalgesia, 28 days treatment” value ([3]; SNL mice, ZL006-05 60 mg/kg/d, i.g., × 28 d, pregabalin 30 mg/kg/d)?
The value was “maintained its antinociceptive effect during 28 days treatment”.

And the “Analgesic tolerance, mechanical hyperalgesia” value ([3]; SNL nNOS-/- and WT mice, ZL006-05 60 mg/kg/d, i.g., 11 d)?
The value was “caused a remarkable analgesic tolerance in nNOS^-/- mice but not in WT mice”.

And the “Effect on SNL-induced mechanical hyperalgesia” value ([3]; mice, ZL006-05 i.g., single administration, 0-12 h)?
The value was “reduced SNL-induced mechanical hyperalgesia”.

And the “Locomotor activity, distance travelled during 5 min” value [4]?
The value was “had no effect”.

What about the “Effect on α5GABAAR (in words)” value [5] of the same compound?
Its value is “low efficacy on α3GABAAR and α5GABAAR”.

From publication PMC8058733, “A pain killer without analgesic tolerance designed by co-targeting PSD-95-nNOS interaction and α2-containning GABAARs” (Theranostics, 2021)
